The values below come from patent publication US11254688B2 (Boehringer Ingelheim International GmbH, priority 2018, dated 2022).

Where a name gives a salt, the structure may show the parent alone.

The experiment deals with T1, hGOAT (Homo sapiens, UniProt Q96T53).
T1 construct: expressed in transfected cells; host or cells: HEK293 (Hek293 hGOAT/PPGhrl Clone #1B8)
T1 sequence (Q96T53 1-435): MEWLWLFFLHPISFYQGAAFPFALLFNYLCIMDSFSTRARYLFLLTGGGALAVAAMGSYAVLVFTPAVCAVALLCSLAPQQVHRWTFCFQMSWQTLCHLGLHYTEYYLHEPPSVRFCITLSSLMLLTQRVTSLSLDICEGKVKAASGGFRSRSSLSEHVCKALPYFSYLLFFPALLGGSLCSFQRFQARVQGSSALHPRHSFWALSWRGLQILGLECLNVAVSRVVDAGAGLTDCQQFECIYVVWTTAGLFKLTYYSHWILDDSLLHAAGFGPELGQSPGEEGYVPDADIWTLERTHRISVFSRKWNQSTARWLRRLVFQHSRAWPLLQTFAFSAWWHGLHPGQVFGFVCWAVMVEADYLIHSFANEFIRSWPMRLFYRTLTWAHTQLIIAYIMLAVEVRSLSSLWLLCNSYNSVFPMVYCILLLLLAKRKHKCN
As to the kind of experiment: Determination of hGOAT activity in HEK293 cells after incubation with test compound (acyl-ghrelin ELISA). The format is cell-based. The note with it: HEK293 cells stably transfected with preproghrelin and human GOAT; octanoate-BSA 100 μM; 5 hours incubation; acyl-ghrelin in medium by ELISA; 8 compound concentrations. As to the method:
Determination of hGOAT Activity in HEK293 Cells after Incubation with Test Compound
HEK293 cells stably transfected with two expression vectors, one coding for preproghrelin cDNA and a second for the expression of human GOATcDNA are used as a cellular model. After feeding the cells with octanoic acid for 5 hours, acyl-ghrelin is measured in cell culture medium by an ELISA procedure.
Cellline: Hek293 hGOAT/PPGhrl Clone #1B8Sodium octanoate, Sigma, Cat.-No. C5038
BD Poly-D-Lysin 384-well Plates, black-clear polystyrene BD Bioscience Cat.-No. […] ELISA human acylated Ghrelin Kit purchased from Bertin Pharman (detailed composition of buffers e.g. wash-puffer, ELISA buffer not known)
Cells are plated with a density of 5000 cells/well in 384-well poly-D-lysin plates and incubated for 1 day at 37° C., 5% CO2 in DMEM medium, 10% FCS, 1×NEAA, Puromycin (0.5 μg/ml) and G418 (1 mg/ml). Then the medium is changed to a identical medium without FCS and containing Octanoate-BSA (final concentration 100 μM each) and compound in DMSO (final DMSO concentration 0,3%). After incubation for 5 hours acylghrelin in the medium is measured by ELISA.
The medium sample is diluted 1:25 in Elisa buffer, a 25 μl aliquot is transferred to a 384-well ELISA plate previously washed 4 times with 100 μL wash buffer, and 25 μl tracer-solution is added. After incubation overnight (˜20 h) at 4° C. temperature the plate is washed 4 times with 100 μl wash-buffer per well. Finally 50 μl Ellman's reagent is added to each well and the plate is incubated in the dark for 20 minutes. The absorbance is measured at 405 nm in an Envision multilabel reader and the amount of acylated ghrelin is calculated according to a acylated ghrelin standard curve provided in the same plate.
The analysis of the data is performed by calculation of the percentage of acyl-ghrelin produced in the presence of test compound compared to the amount of acyl-ghrelin produced in the vehicle control samples. An inhibitor of the GOAT enzyme will give values between 100% CTL (no inhibition) and 0% CTL (complete inhibition).
IC50 values are calculated with Assay Explorer or other suited software based on curve fitting of results of 8 different compound concentrations.
In general terms: An ELISA detects its analyte on a solid surface through an enzyme-linked reagent.
Broadly, the IC50 is the point on the concentration scale where inhibition reaches its midpoint. A low value points to greater potency in that assay. Compound `Cc1nc2nonc2c(N)c1Cc1ccc(C#N)c(OCC(C)(C)O)c1` [Compound 21.6, 4-({7-Amino-5-methyl-[1,2,5]oxadiazolo[3,4-b]pyridin-6-yl}methyl)-2-(2-hydroxy-2-methylpropoxy)benzonitrile] returned an IC50 of 0.15 nM.

`Cc1nc2nonc2c(N)c1Cc1cccnc1OC(F)F` [Compound 4.47, 6-{[2-(Difluoromethoxy)pyridin-3-yl]methyl}-5-methyl-[1,2,5]oxadiazolo[3,4-b]pyridin-7-amine] came in with an IC50 of 1.8 nM.

`CN(C)c1nc2nonc2c(N)c1Cc1ccc(C(F)(F)F)cc1` [Compound 24.3, N5,N5-Dimethyl-6-{[4-(trifluoromethyl)phenyl]methyl}-[1,2,5]oxadiazolo[3,4-b]pyridine-5,7-diamine Trifluoroacetic Acid Salt] yielded an IC50 of 6.12 nM.

`Cc1nc2nonc2c(N)c1Cc1ccc(C(=O)NC2CCN(C)C2=O)cc1` (centres unmarked) [Compound 14.9, 4-({7-Amino-5-methyl-[1,2,5]oxadiazolo[3,4-b]pyridin-6-yl}methyl)-N-(1-methyl-2-oxopyrrolidin-3-yl)benzamide] gave an IC50 of 3.06 nM.

As for `Cc1nc2nonc2c(N)c1Cc1cccn2c(C)nnc12` [Compound 4.9, 5-Methyl-6-({3-methyl-[1,2,4]triazolo[4,3-a]pyridin-8-yl}methyl)-[1,2,5]oxadiazolo[3,4-b]pyridin-7-amine], the half-inhibitory concentration (IC50) turned out to be 4.01 nM.

Take `Cc1nc2nonc2c(N)c1Cc1ccc(C(F)F)nc1` [Compound 4.30, 6-{[6-(Difluoromethyl)pyridin-3-yl]methyl}-5-methyl-[1,2,5]oxadiazolo[3,4-b]pyridin-7-amine]: inhibition was half-maximal at 1.39 nM (IC50).

The compound `Cc1nc2nonc2c(N)c1Cc1ccc(Cl)c(C(=O)N(C)C)c1` [Compound 15.5, 5-({7-Amino-5-methyl-[1,2,5]oxadiazolo[3,4-b]pyridin-6-yl}methyl)-2-chloro-N,N-dimethylbenzamide] had an IC50 of 0.475 nM.

Consider `Cc1nc2nonc2c(N)c1Cc1ccc(C(F)(F)F)n2cnnc12` [Compound 4.12, 5-Methyl-6-{[5-(trifluoromethyl)-[1,2,4]triazolo[4,3-a]pyridin-8-yl]methyl}-[1,2,5]oxadiazolo[3,4-b]pyridin-7-amine], for which the concentration for half-maximal inhibition (IC50) is 0.571 nM.

With `Cc1nc2nonc2c(N)c1Cc1ccc(OC(F)(F)F)cc1F` [Compound 4.46, 6-(2-Fluoro-4-trifluoromethoxy-benzyl)-5-methyl-[1,2,5]oxadiazolo[3,4-b]pyridin-7-ylamine], the IC50 stood at 0.052 nM.

`Cc1nc2nonc2c(N)c1Cc1cccc2c1cnn2C` [Compound 2.13, 5-Methyl-6-[(1-methyl-1H-indazol-4-yl)methyl]-[1,2,5]oxadiazolo[3,4-b]pyridin-7-amine] yielded an IC50 of 0.66 nM.

For the compound `Cc1nc2nonc2c(N)c1Cc1ccc(-c2c(C)noc2C)n2cnnc12` [Compound 12.11, 6-{[5-(3,5-Dimethyl-1,2-oxazol-4-yl)-[1,2,4]triazolo[4,3-a]pyridin-8-yl]methyl}-5-methyl-[1,2,5]oxadiazolo[3,4-b]pyridin-7-amine], the IC50 is 1.31 nM.

Consider `Cc1nc2nonc2c(N)c1Cc1ccc(OC(F)(F)F)c(Br)c1` [Compound 2.14, 6-{[3-Bromo-4-(trifluoromethoxy)phenyl]methyl}-5-methyl-[1,2,5]oxadiazolo[3,4-b]pyridin-7-amine], for which the IC50 was found to be 0.096 nM. Compared with the last compound, the IC50 is about 14-fold lower.

`Cc1nc2nonc2c(N)c1Cc1ccc(OC(F)(F)F)c(C(=O)N(C)C)c1` [Compound 15.1, 5-({7-Amino-5-methyl-[1,2,5]oxadiazolo[3,4-b]pyridin-6-yl}methyl)-N,N-dimethyl-2-(trifluoromethoxy)benzamide] gave a 50% inhibitory concentration (IC50) of 0.183 nM.

`Cc1nc2nonc2c(N)c1Cc1ccc(C(F)(F)F)c(C(=O)N(C)C)c1` [Compound 15.6, 5-({7-Amino-5-methyl-[1,2,5]oxadiazolo[3,4-b]pyridin-6-yl}methyl)-N,N-dimethyl-2-(trifluoromethyl)benzamide] came in with an IC50 of 1.26 nM. Compared with the last compound, the IC50 is about 6.9-fold higher.

As to `Cc1nc2nonc2c(N)c1Cc1ccc(CC#N)cc1` [Compound 2.15, 2-[4-({7-Amino-5-methyl-[1,2,5]oxadiazolo[3,4-b]pyridin-6-yl}methyl)phenyl]acetonitrile], the IC50 came to 0.887 nM.

`Cc1nc2nonc2c(N)c1Cc1ccc(C#N)c(OCC2CC2(F)F)c1` (centres unmarked) [Compound 21.5, 4-({7-Amino-5-methyl-[1,2,5]oxadiazolo[3,4-b]pyridin-6-yl}methyl)-2-[(2,2-difluorocyclopropyl)methoxy]benzonitrile] came in with a half-maximal inhibitory concentration (IC50) of 0.198 nM.

Regarding `Cc1nc2nonc2c(N)c1Cc1ccc(F)c(Br)c1` [Compound 4.44, 6-(3-Bromo-4-fluoro-benzyl)-5-methyl-[1,2,5]oxadiazolo[3,4-b]pyridin-7-ylamine], the IC50 was 0.573 nM. Against the preceding compound, the IC50 is about 2.9-fold higher.

`Cc1nc2nonc2c(N)c1Cc1cccc(C(F)(F)F)c1` [Compound 4.38, 5-Methyl-6-{[3-(trifluoromethyl)phenyl]methyl}-[1,2,5]oxadiazolo[3,4-b]pyridin-7-amine] had an IC50 of 0.268 nM.

On to `Cc1nc2nonc2c(N)c1Cc1ccc(-c2ccco2)nc1` [Compound 12.9, 6-{[6-(Furan-2-yl)pyridin-3-yl]methyl}-5-methyl-[1,2,5]oxadiazolo[3,4-b]pyridin-7-amine], for which the IC50 came out at 1.49 nM.

Turning to `Cc1nc2nonc2c(N)c1Cc1ccc(Cl)n2cnnc12` [Compound 4.14, 6-({5-Chloro-[1,2,4]triazolo[4,3-a]pyridin-8-yl}methyl)-5-methyl-[1,2,5]oxadiazolo[3,4-b]pyridin-7-amine], the IC50 stood at 0.665 nM.

`Cc1nc2nonc2c(N)c1Cc1ccc(-c2cn(C)nc2C(F)(F)F)nc1` [Compound 12.7, 5-Methyl-6-({6-[1-methyl-3-(trifluoromethyl)-1H-pyrazol-4-yl]pyridin-3-yl}methyl)-[1,2,5]oxadiazolo[3,4-b]pyridin-7-amine]: it took 1.17 nM to reach half-maximal inhibition (IC50). This IC50 is about 1.8-fold higher than that of the compound before.

`Cc1nc2nonc2c(N)c1Cc1ccc(OC(F)F)n2cnnc12` [Compound 4.15, 6-{[5-(Difluoromethoxy)-[1,2,4]triazolo[4,3-a]pyridin-8-yl]methyl}-5-methyl-[1,2,5]oxadiazolo[3,4-b]pyridin-7-amine] yielded an IC50 of 0.33 nM.

Regarding `Cc1nc2nonc2c(N)c1Cc1ccc(OCC2CC2(F)F)nc1` (stereo in doubt) [Compound 21.13, 6-[(6-{[(1R)-2,2-Difluorocyclopropyl]methoxy}pyridin-3-yl)methyl]-5-methyl-[1,2,5]oxadiazolo[3,4-b]pyridin-7-amine], the IC50 amounted to 0.718 nM. Against the preceding compound, the IC50 is about 2.2-fold higher.

Turning to `COc1ccc(Cc2c(C)nc3nonc3c2N)cc1` [Compound 4.53, 6-[(4-Methoxyphenyl)methyl]-5-methyl-[1,2,5]oxadiazolo[3,4-b]pyridin-7-amine], the midpoint of inhibition, the IC50, lay at 0.147 nM.

As to `Cc1nc2nonc2c(N)c1Cc1ccc(C(F)(F)F)c(C(N)=O)c1` [Compound 19.7, 5-({7-Amino-5-methyl-[1,2,5]oxadiazolo[3,4-b]pyridin-6-yl}methyl)-2-(trifluoromethyl) benzamide], the IC50 amounted to 7.97 nM.

In the case of `Cc1nc2nonc2c(N)c1Cc1ccc(C(=O)NCC(C)O)cc1` (centres unmarked) [Compound 14.15, 4-({7-Amino-5-methyl-[1,2,5]oxadiazolo[3,4-b]pyridin-6-yl}methyl)-N-(2-hydroxypropyl)benzamide], the IC50 is 5.12 nM.

Take `Cc1nc2nonc2c(N)c1Cc1cccn2c(C(F)(F)F)nnc12` [Compound 4.10]: the IC50 worked out at 5.36 nM. This IC50 and that of the compound before are within 1.5-fold of each other.

In turn, `Cc1nc2nonc2c(N)c1Cc1ccccc1` [Compound 2.16, 6-Benzyl-5-methyl-[1,2,5]oxadiazolo[3,4-b]pyridin-7-amine] yielded an IC50 of 3.03 nM. Against the preceding compound, the IC50 is about 1.8-fold lower.

`Cc1nc2nonc2c(N)c1Cc1ccc(C(=O)NC(CO)C2CC2)cc1` (centres unmarked) [Compound 14.16, 4-({7-Amino-5-methyl-[1,2,5]oxadiazolo[3,4-b]pyridin-6-yl}methyl)-N-(1-cyclopropyl-2-hydroxyethyl)benzamide]: inhibition was half-maximal at 3.73 nM (IC50). This IC50 and that of the compound before are within 1.5-fold of each other.
